Experimental data as given in US20040024024A1, “Aromatic sulfone hydroxamates and their use as protease inhibitors” (priority 2001, published 2004).

Legend:
Test in all cases: In vitro MMP inhibition, IC50 determination (fluorogenic substrate I)
Assay type in all cases: biochemical
Human recombinant MMP-1 = biological target: T1, Human recombinant MMP-1 (Homo sapiens, UniProt P03956)
T1 construct: made in house; host or cells: MMP-1-transfected HT-1080 cells (spent media)
T1 sequence (P03956 100-469): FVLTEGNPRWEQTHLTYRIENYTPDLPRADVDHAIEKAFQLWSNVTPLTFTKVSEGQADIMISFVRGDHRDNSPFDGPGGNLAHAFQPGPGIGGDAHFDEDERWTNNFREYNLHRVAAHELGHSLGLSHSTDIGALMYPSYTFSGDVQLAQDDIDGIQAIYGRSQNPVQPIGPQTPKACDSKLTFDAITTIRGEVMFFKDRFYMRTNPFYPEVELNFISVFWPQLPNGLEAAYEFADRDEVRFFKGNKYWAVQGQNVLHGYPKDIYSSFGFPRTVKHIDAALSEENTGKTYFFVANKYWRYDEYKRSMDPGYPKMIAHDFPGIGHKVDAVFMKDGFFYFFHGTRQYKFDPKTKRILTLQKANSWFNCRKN
Procedure, shortened: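 Inhibitor dilutions were made in 100 mM Tris-HCl/100 mM NaCl/10 mM CaCl2 buffer, pH 7.5, and incubated at room temperature with activated proenzyme (from transfected HT-1080 media; APMA or trypsin) and 4 μM quenched methoxycoumarin peptide substrate. Loss of 415 nm fluorescence (328 nm excitation) against concentration gave IC50.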

Human recombinant MMP-2 = biological target: T2, Human recombinant MMP-2 (Homo sapiens, UniProt P08253)
T2 construct: made in house; host or cells: MMP-2-transfected p2AHT2 cells
T2 sequence (P08253 110-660): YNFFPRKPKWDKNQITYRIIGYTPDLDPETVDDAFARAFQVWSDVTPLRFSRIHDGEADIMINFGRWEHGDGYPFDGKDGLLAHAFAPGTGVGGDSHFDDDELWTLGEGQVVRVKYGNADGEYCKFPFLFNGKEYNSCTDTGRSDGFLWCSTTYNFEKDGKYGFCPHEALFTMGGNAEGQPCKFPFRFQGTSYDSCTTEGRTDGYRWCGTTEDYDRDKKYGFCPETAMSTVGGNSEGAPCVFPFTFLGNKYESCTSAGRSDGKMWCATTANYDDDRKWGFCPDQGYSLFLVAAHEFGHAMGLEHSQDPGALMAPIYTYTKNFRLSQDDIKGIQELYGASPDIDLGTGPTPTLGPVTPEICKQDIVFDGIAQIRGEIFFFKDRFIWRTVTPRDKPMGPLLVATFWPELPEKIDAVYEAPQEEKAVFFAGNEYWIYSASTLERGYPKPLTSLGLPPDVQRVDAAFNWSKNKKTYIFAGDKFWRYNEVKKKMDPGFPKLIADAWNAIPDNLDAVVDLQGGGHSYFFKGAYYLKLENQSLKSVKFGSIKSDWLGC
Procedure, shortened: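 IC50 was derived from the concentration-dependent fall in fluorescence (ex 328, em 415 nm) on Gly-Leu cleavage of 4 μM MCA/Dpa-quenched substrate I. Assays ran at room temperature in pH 7.5 Tris/NaCl/CaCl2/Brij buffer with MMP-2 activated by trypsin or APMA; inhibitors were diluted from 1% DMSO stocks.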

Human recombinant MMP-9 = biological target: T3, Human recombinant MMP-9 (Homo sapiens, UniProt P14780)
T3 construct: made in house; host or cells: MMP-9-transfected HT1080 cells (spent media)
T3 sequence (P14780 107-707 limits assumed): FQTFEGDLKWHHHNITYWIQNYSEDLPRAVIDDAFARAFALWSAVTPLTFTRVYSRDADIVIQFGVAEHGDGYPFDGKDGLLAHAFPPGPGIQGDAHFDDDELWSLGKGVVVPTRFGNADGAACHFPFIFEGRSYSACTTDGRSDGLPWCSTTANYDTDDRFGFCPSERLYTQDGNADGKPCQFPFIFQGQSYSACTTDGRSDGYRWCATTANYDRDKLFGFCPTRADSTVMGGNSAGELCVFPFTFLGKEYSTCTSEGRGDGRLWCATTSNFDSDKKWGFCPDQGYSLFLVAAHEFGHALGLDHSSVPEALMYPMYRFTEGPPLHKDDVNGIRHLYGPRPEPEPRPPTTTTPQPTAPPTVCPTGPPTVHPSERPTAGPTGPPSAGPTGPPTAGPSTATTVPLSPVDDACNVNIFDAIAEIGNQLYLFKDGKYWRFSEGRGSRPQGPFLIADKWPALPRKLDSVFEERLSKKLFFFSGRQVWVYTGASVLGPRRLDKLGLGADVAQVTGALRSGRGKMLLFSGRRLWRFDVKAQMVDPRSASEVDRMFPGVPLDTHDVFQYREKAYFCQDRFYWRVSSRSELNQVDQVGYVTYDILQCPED
Procedure, shortened: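 Reduction in fluorescence (328 nm excitation, 415 nm emission) from cleavage of 4 μM quenched peptide substrate I, measured at room temperature against inhibitor concentration, gave IC50. Enzyme: trypsin- or APMA-activated MMP-9 purified from transfected HT1080 medium; buffer 100 mM Tris, 100 mM NaCl, 10 mM CaCl2, pH 7.5.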

Human recombinant MMP-13 = biological target: T4, Human recombinant MMP-13 (Homo sapiens, UniProt P45452)
T4 construct: made in house; host or cells: baculovirus / insect cells
Procedure, shortened: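 Fluorescence at 415 nm (excitation 328 nm) reports Gly-Leu cleavage of 4 μM quenched methoxycoumarin peptide substrate I. Human recombinant MMP-13, activated by trypsin or APMA, was incubated at room temperature with varied inhibitor concentrations in pH 7.5 Tris/NaCl/CaCl2 buffer; IC50 derived from reduced fluorescence.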

Human recombinant MMP-14 = biological target: T5, Human recombinant MMP-14 (Homo sapiens, UniProt P50281)
T5 construct: The catalytic domain enzyme was expressed in E. coli inclusion bodies, solubilized in urea; made in house
Procedure, shortened: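 IC50 came from reduced fluorescence (ex 328 nm, em 415 nm) as inhibitor concentration rose, with 4 μM substrate I cleaved at Gly-Leu. Room-temperature incubation in pH 7.5 Tris buffer with 10 mM CaCl2; the E. coli-expressed, refolded MMP-14 catalytic domain was activated with trypsin or APMA.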

[1] = value outside parentheses (Ki in parenthesis)

Compound	IC50 (Human recombinant MMP-1; [1]) [nM]	IC50 (Human recombinant MMP-2; [1]) [nM]	IC50 (Human recombinant MMP-9; [1]) [nM]	IC50 (Human recombinant MMP-13; [1]) [nM]	IC50 (Human recombinant MMP-14; [1]) [nM]	IC50 (Human recombinant MMP-1; value outside parentheses) [nM]	IC50 (Human recombinant MMP-2; value outside parentheses) [nM]	IC50 (Human recombinant MMP-9; value outside parentheses) [nM]	IC50 (Human recombinant MMP-13; value outside parentheses) [nM]	IC50 (Human recombinant MMP-14; value outside parentheses) [nM]
CC(CCc1ccccc1)Oc1ccc(S(=O)(=O)C2(C(=O)NO)CCOCC2)cc1 (stereo not drawn) [Example 467]	> 10000	940	450	120	> 10000	–	–	–	–	–
COC(C)CCOc1ccc(S(=O)(=O)C2(C(=O)NO)CCOCC2)cc1 (stereo not drawn) [Example 472]	> 10000	3	40	6	400	–	–	–	–	–
COC(C)(C)CCOc1ccc(S(=O)(=O)C2(C(=O)NO)CCOCC2)cc1 [Example 473]	> 10000	5	45	5	600	–	–	–	–	–
CCCC(CCOc1ccc(S(=O)(=O)C2(C(=O)NO)CCOCC2)cc1)SC (stereo not drawn) [Example 475]	> 10000	30	120	2	3600	–	–	–	–	–
CCCC(CCOc1ccc(S(=O)(=O)C2(C(=O)NO)CCOCC2)cc1)S(C)(=O)=O (stereo not drawn) [Example 476]	> 10000	2500	> 10000	230	> 10000	–	–	–	–	–
O=C(NO)C1(S(=O)(=O)c2ccc(OCCC3CCCCC3)cc2)CCOCC1 [Example 478]	> 10000	1	34	5	1450	–	–	–	–	–
C/C(=C\c1ccccc1)COc1ccc(S(=O)(=O)C2(C(=O)NO)CCOCC2)cc1 [Example 479]	2700	4	14	3	2000	–	–	–	–	–
O=C(NO)C1(S(=O)(=O)c2ccc(OC3CCOCC3)cc2)CCOCC1 [Example 480]	4200	18	60	11	1400	–	–	–	–	–
CN(C)c1ccc(/C=C/CCCOc2ccc(S(=O)(=O)C3(C(=O)NO)CCOCC3)cc2)cc1 [Example 486]	> 10000	106	255	4.6	> 10000	–	–	–	–	–
COc1ccc(C(O)CCCCOc2ccc(S(=O)(=O)C3(C(=O)NO)CCOCC3)cc2)cc1 (stereo not drawn) [Example 487]	> 10000	3.1	169	0.5	1570	–	–	–	–	–
O=C(CCCCOc1ccc(S(=O)(=O)C2(C(=O)NO)CCOCC2)cc1)c1ccc2ccccc2c1 [Example 489]	> 10000	58.2	> 10000	0.4	> 10000	–	–	–	–	–
CN(C)c1ccc(C(=O)CCCOc2ccc(S(=O)(=O)C3(C(=O)NO)CCOCC3)cc2)cc1 [Example 490]	> 10000	18.2	928	0.2	5630	–	–	–	–	–
COc1ccc(C(=O)CCCOc2ccc(S(=O)(=O)C3(C(=O)NO)CCOCC3)cc2)cc1 [Example 491]	–	–	–	–	–	7310	6.8	94.2	0.8	981
O=C(CCCOc1ccc(S(=O)(=O)C2(C(=O)NO)CCOCC2)cc1)c1ccccc1 [Example 492]	–	–	–	–	–	3550	3.5	67.3	0.7	574
COc1ccc(C(=O)CCOc2ccc(S(=O)(=O)C3(C(=O)NO)CCOCC3)cc2)cc1 [Example 494]	–	–	–	–	–	1520	< 0.1	13.6	< 0.1	197
